Laboratory results as given in article doi:10.1101/2024.08.25.609621 (bioRxiv, 2024).
Like-named read-outs stand apart in the source and are kept apart here.

Columns and labels:
[1] = target: SARS-CoV-2 NSP3 macrodomain (Mac1), P43 crystal form (Severe acute respiratory syndrome coronavirus 2, UniProt P0DTD1); type: binding; settings: for binding by crystal soaking: P43 crystal form, repeated attempts, in words
[2] = target: SARS-CoV-2 NSP3 macrodomain (Mac1) (Severe acute respiratory syndrome coronavirus 2, UniProt P0DTD1); assay: biochemical; type: binding; settings: for Ki: read-out: SARS CoV-2 macrodomain HTRF assay: Ki; for Ligand efficiency (binding enery per heavy atom): from SARS CoV-2 macrodomain HTRF assay
[3] = ligand modeling in Mac1 crystal structure
[4] = Dose-response, SARS CoV-2 macrodomain HTRF assay, read-out: IC50
[5] = Single dose, 200 μM, mean of three technical replicates
[6] = Single dose, concentration 200 μM, read-out: Average % competition
[7] = preliminary screen, compound at 200 μM, mean of 3-4 technical replicates, read-out: % competition in HTRF assay
[8] = Single dose, concentration 200 μM, read-out: SARS CoV-2 macrodomain HTRF assay: Average % competition
[9] = dose-response, read-out: SARS CoV-2 macrodomain HTRF assay: IC50

c1ccc(-n2nnnc2CSc2nnc(NC3CC3)s2)cc1 [AVI-286]
Isomers modeled [1]: achiral | Number of isomers bound [1]: 1

CC1c2ccsc2CCN1C(=O)Cc1csc(-c2ccccc2)n1 (centres unmarked) [AVI-287]
Average % competition [2]: 0%

O=C(O)C(c1ccccc1)n1sc2ccccc2c1=O (centres unmarked) [AVI-288]
Number of isomers bound [1, 3]: 1

O=C1COc2cc(C(=O)N3CC(C(=O)O)c4ccccc43)ccc2N1 (centres unmarked) [AVI-289]
IC50 [2, 4]: > 1000 µM | Average % competition [2, 5]: 21%

COC1CCCN(S(=O)(=O)c2cc(Cl)cnc2N)C1 (centres unmarked) [AVI-290]
binding by crystal soaking [1]: failed to observe binding

CC(C)n1nnnc1SCc1c(C(=O)O)sc2cccc(F)c12 [AVI-291]
Number of isomers bound [1, 3]: 1 | Isomers modeled ([1]; stereoisomer(s) modeled in Mac1 crystal structure): achiral

Cc1nc2cc(NC(=O)C3CC(=O)Nc4ccccc43)ccc2o1 (centres unmarked) [AVI-292]
Average % competition [2]: 0%

Cc1ncc(CN(C)C(=O)c2cccc(N)c2F)s1 [AVI-293]
IC50 [2, 4]: > 1000 µM | Average % competition [2, 5]: 14%

CC1CN(C(=O)c2ccccc2S(C)(=O)=O)c2cccnc2O1 (centres unmarked) [AVI-294]
Average % competition [2]: 13%

Nc1ncc(Cl)cc1S(=O)(=O)N1CCCC(O)C1 (centres unmarked) [AVI-295]
binding by crystal soaking [1]: failed to observe binding

Nc1nnc(SCCn2c(=O)oc3ccccc32)s1 [AVI-296]
Isomers modeled [1]: achiral | Number of isomers bound [1]: 1

CCCC1CCCC1C(=O)N[C@H]1CCc2nc(N)sc2C1 (some centres unmarked) [AVI-298]
Average % competition [2]: <10%

CC(=O)Nc1ccc(S(=O)(=O)CCCN2C(=O)CC(C)(C(C)C)C2=O)cc1 (centres unmarked) [AVI-299]
Average % competition [2]: 19%

O=C(NCCCN1C(=O)NC2(CCCC2)C1=O)c1ccc(O)nc1 [AVI-300]
Average % competition [2]: 8%

Cc1ccc2c(c1)C(=O)N(CCC(=O)Nc1cnc3c(c1)c(C)nn3C)C2=O [AVI-301]
Average % competition [2]: 16%

Cc1nnc2n1CCN(C(=O)CN1C(=O)CCOc3ccccc31)C2 [AVI-302]
Average % competition [2]: 0%

CC(OC(=O)c1ccc2nc(N)sc2c1)C(=O)N1CCCCCC1 (centres unmarked) [AVI-304]
Average % competition [2]: 0%

CNC(=O)c1ccc(NC(=O)C2CC(=O)Nc3ccccc32)cc1 (centres unmarked) [AVI-305]
Average % competition [2]: 0%

Cc1nc(-c2cccc(NC(=O)NCc3cccs3)c2)n[nH]1 [AVI-306]
IC50 [2, 4]: > 1000 µM | Average % competition [2, 5]: 20%

O=C1CC(C(=O)Nc2nc3c(s2)CCCC3)c2ccccc2N1 (centres unmarked) [AVI-307]
Average % competition [2]: 0%

c1ccn2c(Sc3ncnc4ccsc34)nnc2c1 [AVI-308]
Average % competition [2]: 0%

CNS(=O)(=O)c1cc(C(=O)N2CCOc3ccccc32)n(C)c1 [AVI-309]
Average % competition [2]: 0%

Cc1ccc(O)c(C(=O)c2cnn3c(N)nnc3c2)c1 [AVI-310]
Average % competition [2]: 0%

Nc1ccc(F)c(C(=O)NCc2cnc(O)nc2O)c1F [AVI-312]
Average % competition [2]: <10%

O=C(O)C1CN(C(=O)c2cccc3[nH]ccc23)c2ccccc21 (centres unmarked) [AVI-314]
IC50 [2, 4]: > 1000 µM | Average % competition [2, 5]: 32%

CC(=O)Nc1ccc(NC(=O)CSc2nnnn2C2CCCC2)cc1 [AVI-315]
Average % competition [2]: 0%

O=C(Nc1ccsc1C(=O)O)c1ccc2c(c1)OCO2 [AVI-316]
Number of isomers bound ([1]; ligand modeling in Mac1 crystal soak): 1 | Isomers modeled ([1]; stereoisomer(s) of ligand modeled in Mac1 crystal structure): achiral

O=C(c1cc(C2CCCCC2)[nH]n1)N1CCCC(O)(C(F)(F)F)CC1 (centres unmarked) [AVI-318]
Average % competition [2]: 13%

O=C(O)C1CN(C(=O)c2ccc3[nH]nnc3c2)c2ccccc21 (centres unmarked) [AVI-319]
Average % competition [2]: 25%

Cc1ccc(C)c(CN2C(=O)NC(C)(Cc3ccc4c(c3)OCO4)C2=O)c1 (centres unmarked) [AVI-320]
Average % competition [2]: 18%

Cc1noc(NCc2cc3ccccc3nc2O)n1 [AVI-322]
Average % competition [2]: 0%

O=C(O)C1CN(C(=O)c2ccc3c(c2)OCCO3)CCO1 (centres unmarked) [AVI-323]
Average % competition [2]: 7%

Nc1ncnc(N2CCC(C(F)(F)F)C3(CCC3)C2)c1Cl (centres unmarked) [AVI-324]
Average % competition [2]: <10%

CCOc1ccc(-c2nc(CC(=O)N3CCn4cccc4C3C)cs2)cc1 (centres unmarked) [AVI-325]
Average % competition [2]: 0%

O=C(O)C1CCc2nnc(-c3ccc(F)cc3)n2C1 (centres unmarked) [AVI-326]
Average % competition [2]: 15%

Cc1nn(C)c2sc(C(=O)N3CC(C(=O)O)c4ccccc43)cc12 (centres unmarked) [AVI-327]
Average % competition [2]: 0%

Cc1ccc2c(c1)CC[C@@H](C(=O)Nc1nnc3n1CCCC3)O2 [AVI-329]
Number of isomers bound [1]: 1

NC(=O)N1CCC[C@H]1C(=O)Nc1ccc2ncnn2c1 [AVI-330]
Average % competition [2]: 14%

Nc1ncnc2sc3c(c12)CCN(C(=O)[C@H]1CC=CCC1)C3 [AVI-331]
Average % competition [2]: <10%

N#Cc1cnc(CSc2nc(-c3ccccc3)co2)nc1N [AVI-332]
Average % competition [2]: <10%

O=C(O)c1ccc2c(c1)C(NC(=O)C1CCn3ncnc3C1)CCC2 (centres unmarked) [AVI-333]
Average % competition [2]: 21%

CC1CCCC1OC(=O)Cn1cnc2c1c(=O)n(C)c(=O)n2C (centres unmarked) [AVI-335]
Average % competition [2]: <10%

Cc1ccc(N2CCN(c3ncnc(-c4ccccc4)n3)CC2=O)cc1 [AVI-336]
Average % competition [2]: <10%

CC(C(=O)NCc1c(C(=O)O)[nH]c2ccccc12)n1cncn1 (centres unmarked) [AVI-337]
Average % competition [2]: 14%

Nc1cc(N2CCC3CCCCC3C2)ncn1 (centres unmarked) [AVI-339]
IC50 [2, 4]: > 1000 µM | Average % competition [2, 5]: <10%

CC1(c2ccc(F)cc2)CN(C(=O)c2cnc(N)nc2C(F)(F)F)C1 [AVI-340]
Average % competition [2]: 20%

Cn1ccc2cc(NC(=O)C3CC(=O)NC4CCCCC43)ccc21 (centres unmarked) [AVI-342]
Average % competition [2]: <10%

Cc1nc(N)ncc1C(=O)NCC(O)Cc1ccc(Cl)cc1 (centres unmarked) [AVI-343]
Average % competition [2]: <10%

COc1ccc(-c2nccc(N3CCC(c4ccsc4)CC3)n2)cc1 [AVI-344]
Average % competition [2]: <10%

O=c1[nH]c2ccccc2cc1CNc1nc(C2CC2)ns1 [AVI-346]
IC50 [2, 4]: > 1000 µM | Average % competition [2, 5]: <10%

Cc1ccc(CC(=O)N2CCSC23CC(C(=O)O)C3)cc1O (centres unmarked) [AVI-347]
Average % competition [2]: <10%

CC(NC(=O)c1ccc(N)nc1Cl)C(O)c1cccc(F)c1 (centres unmarked) [AVI-349]
Average % competition [2]: 15%

O[C@@]1(Cn2ccnn2)CCCN(c2ncnc3[nH]ccc23)C1 [AVI-608]
inhibition at 200 µM [2, 6]: 8% | inhibition at 200 µM [2, 7]: < 10%

O[C@@H]1CNCC[C@H]1Nc1ncnc2[nH]ccc12 [AVI-613]
inhibition at 200 µM [2, 6]: < 10% | inhibition at 200 µM [2, 7]: < 10%

CN(C)C[C@@]1(O)CCCN(c2ncnc3[nH]ccc23)C1 [AVI-614]
inhibition at 200 µM [2, 6]: < 10% | inhibition at 200 µM [2, 7]: < 10%

O[C@H]1CNCC[C@@H]1Nc1ncnc2[nH]ccc12 [AVI-615]
inhibition at 200 µM [2, 8]: < 10% | inhibition at 200 µM [2, 7]: < 10%

O=C(O)C(F)(F)F.OC1c2ccccc2CC1Nc1ncnc2[nH]ccc12 (centres unmarked) [AVI-3634]
inhibition at 200 µM [2, 6]: < 10% | inhibition at 200 µM [2, 7]: < 10%

O=C(O)C(F)(F)F.OCC(Nc1ncnc2[nH]ccc12)C1CCCO1 (centres unmarked) [AVI-3645]
inhibition at 200 µM [2, 6]: 54% | inhibition at 200 µM [2, 7]: 54%

O=C(O)C(F)(F)F.OC[C@@H](CCc1ccccc1)Nc1ncnc2[nH]ccc12 [AVI-3654]
inhibition at 200 µM [2, 6]: 27% | inhibition at 200 µM [2, 7]: 27%

CC(C)CCC(CO)Nc1ncnc2[nH]ccc12.O=C(O)C(F)(F)F (centres unmarked) [AVI-3668]
inhibition at 200 µM [2, 6]: 38% | inhibition at 200 µM [2, 7]: 38%

O=[N+]([O-])c1ccc(C(O)C(CO)Nc2ncnc3[nH]ccc23)cc1 (centres unmarked) [AVI-3672]
inhibition at 200 µM [2, 6]: 43% | inhibition at 200 µM [2, 7]: 43%

O=C(O)C(F)(F)F.OCC(CC1CCOCC1)Nc1ncnc2[nH]ccc12 (centres unmarked) [AVI-3676]
inhibition at 200 µM [2, 6]: < 10% | inhibition at 200 µM [2, 7]: < 10%

O=C(O)C(F)(F)F.OCC(Nc1ncnc2[nH]ccc12)C(O)C1CCCCC1 (centres unmarked) [AVI-3687]
inhibition at 200 µM [2, 6]: 33% | inhibition at 200 µM [2, 7]: 33%

O=C(O)C(F)(F)F.OCC(Cc1cccc(F)c1)Nc1ncnc2[nH]ccc12 (centres unmarked) [AVI-3706]
inhibition at 200 µM [2, 6]: 77% | inhibition at 200 µM [2, 7]: 77%

O=C(O)C(F)(F)F.OCC1C2C=CC(C2)N1c1ncnc2[nH]ccc12 (centres unmarked) [AVI-3712]
inhibition at 200 µM [2, 8]: 55% | inhibition at 200 µM [2, 7]: 55%

CC(C)(C)C(O)CC(CO)Nc1ncnc2[nH]ccc12.O=C(O)C(F)(F)F (centres unmarked) [AVI-3714]
inhibition at 200 µM [2, 6]: < 10% | inhibition at 200 µM [2, 7]: < 10%

OCC1CCC2(CCOCC2)CN1c1ncnc2[nH]ccc12 (centres unmarked) [AVI-4065]
IC50 [2, 9]: 430 µM | Ki ([2]; dose-response): 400 µM | Ligand efficiency (binding enery per heavy atom) [2]: 0.21

CC1(C)CCC(O)(CNc2ncnc3[nH]ccc23)CC1 [AVI-4310]
IC50 [2, 9]: 76 µM | Ki ([2]; dose-response): 71 µM | Ligand efficiency (binding enery per heavy atom) [2]: 0.29

OC1(CNc2ncnc3[nH]ccc23)CCC2(CC1)OCCO2 [AVI-4315]
IC50 [2, 9]: 210 µM | Ki ([2]; dose-response): 200 µM | Ligand efficiency (binding enery per heavy atom) [2]: 0.23

CC(Nc1ncnc2[nH]ccc12)C1(O)CCCCC1 (centres unmarked) [AVI-4321]
IC50 [2, 9]: 48 µM | Ki ([2]; dose-response): 45 µM | Ligand efficiency (binding enery per heavy atom) [2]: 0.32

Cc1c[nH]c2ncnc(NCC3(O)CCC(C)(C)CC3)c12 [AVI-4330]
IC50 [2, 9]: 650 µM | Ki ([2]; dose-response): 610 µM | Ligand efficiency (binding enery per heavy atom) [2]: 0.21

OCC1(Nc2ncnc3[nH]ccc23)COC1 [AVI-5649]
inhibition at 200 µM [2, 6]: < 10% | inhibition at 200 µM [2, 7]: < 10%

Nc1cccc(CSC2CCc3ccccc32)n1 (centres unmarked) [AVI-6015]
IC50 ([2]; read-out: IC50): > 1000 µM

CC(O)C1CCN(c2cc(N3CCC(c4ccccc4)CC3C)ncn2)C1 (centres unmarked) [AVI-6016]
IC50 ([2]; read-out: IC50): > 1000 µM

Nc1ncnc(N2CCCCC3(CCC3)C2)c1Cl [AVI-6017]
IC50 ([2]; read-out: IC50): > 1000 µM

Cc1ccc(C(=O)O)cc1NCc1ccc2nsnc2c1 [AVI-6018]
IC50 ([2]; read-out: IC50): > 1000 µM

O=C1OC(CSC2CCC(O)C2)CN1C1CCCCC1 (centres unmarked) [AVI-6019]
IC50 ([2]; read-out: IC50): > 1000 µM

Cn1c(=O)[nH]c(=O)c2c1nc(Br)n2CC(=O)C1CCC(F)(F)CC1 [AVI-6020]
IC50 ([2]; read-out: IC50): > 1000 µM
